Where two headings read alike, the source gives them in different places. Numbered stars: 1 amine (or outer) side, 2 acyl side, 3 side chain; on linkers, the order of the positions; unused ones are H or OH. Bridge positions count the residues as written; N and C are the ends. Square brackets hold non-standard residues; d marks the D form. Primed or numbered codes have the meaning given here. Peptide text beside a SMILES is read from it. * marks the point of attachment. C20 diacid = O=C(O)CCCCCCCCCCCCCCCCCCC(=O)*; γGlu = O=C(O)[C@H](CCC(=O)[*:2])N[*:1]; Hyp = O=C(O)[C@@H]1C[C@@H](O)CN1; Trx′ = not defined here
How the values were obtained:
[1] = type: physicochemical; conditions: 40° C.
Description: The penicillin bottle after covering was placed in a stability test box at 40° C. Before testing, a sample was centrifuged at 10,000 rpm and 4° C. for 3 minutes, and a supernatant was taken and added into a liquid-phase sample injection bottle. The sample was detected by the liquid phase method in Example 3.

[2] = Freeze-thaw stability of derivatives (freeze-thaw yield by liquid chromatography); type: physicochemical; conditions: for Dissolution property: appearance after dissolution at 0.2 mg/ml in 20 mM phosphate buffer solution (PB) (pH 7.0); for Freeze storage property: appearance after overnight storage at −20° C. and thawing to room temperature, 0.2 mg/ml in 20 mM PB (pH 7.0); for Freeze storage yield: concentration of polypeptide after freezing and thawing / concentration before, by liquid chromatography, −20° C. overnight
Method in brief: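 Freeze-thaw yield is the ratio of peptide concentration after versus before one overnight −20° C freeze and room-temperature thaw, both quantified by RP-HPLC of supernatant after centrifugation. Samples were 0.2 mg/ml freeze-dried derivative in 20 mM PB, pH 7.0.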

human amylin receptor = biological target: T1, human amylin receptor (Homo sapiens, UniProt O60896+P30988); assay: Luciferase assay of amylin derivatives in amylin receptor/CRE-luc CHO cell line; type: cell-based; conditions: 24 hours incubation, F12 medium containing 10% FBS
T1 construct: host or cells: CHO-K1/Ga15/AMY3 cells, further stably transfected with a CRE-luciferase plasmid
T1 sequence (P30988 25-474): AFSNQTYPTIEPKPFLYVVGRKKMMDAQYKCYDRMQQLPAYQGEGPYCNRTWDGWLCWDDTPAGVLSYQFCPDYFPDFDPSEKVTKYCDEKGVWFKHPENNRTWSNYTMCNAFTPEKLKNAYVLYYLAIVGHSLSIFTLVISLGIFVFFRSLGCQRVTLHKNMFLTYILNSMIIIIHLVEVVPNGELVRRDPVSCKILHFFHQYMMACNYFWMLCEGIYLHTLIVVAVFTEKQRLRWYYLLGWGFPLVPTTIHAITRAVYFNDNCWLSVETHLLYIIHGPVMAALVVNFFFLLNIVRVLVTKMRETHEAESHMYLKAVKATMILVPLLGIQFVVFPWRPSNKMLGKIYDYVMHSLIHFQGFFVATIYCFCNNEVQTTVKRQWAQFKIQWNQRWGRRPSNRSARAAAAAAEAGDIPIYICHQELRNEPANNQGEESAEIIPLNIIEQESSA
T1 sequence (O60896 24-148 partner): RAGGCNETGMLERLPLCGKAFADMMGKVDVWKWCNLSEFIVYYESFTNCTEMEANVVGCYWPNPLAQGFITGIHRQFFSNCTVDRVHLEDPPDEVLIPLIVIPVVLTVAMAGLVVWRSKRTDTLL
Description: The experiment was intended to detect the activity or efficacy of the amylin derivatives on a human amylin receptor in vitro by luciferase assay.
50 μL of growth medium (F12 medium containing 10% FBS) was added into each well of a white 96-well plate, and the stably transfected amylin/CRE-lue CHO cells were inoculated into the white 96-well plate at a density of about 20,000 cells/well for activity determination.

[3] = Weight loss effect of dosage of derivatives in SD rats (Example 6); type: in vivo; conditions: subcutaneous
Description: SD rats obtained by the same method as in Example 5 were used in this experimental study. There were an experimental group C: C1 to C13, and an experimental group D: D1 to D7, with 5 to 8 rats in each group of the derivative test, and according to administration schemes as shown in Table 11 and Table 12, the rats in each group […] The administration time of each group was recorded. After administration, the rats were put back into their cages in which the rats could get food and water. Food consumption and weight changes of the rats were recorded every 24 hours by online recording or manual recording. Weight and cumulative food intake changes of the SD rats in each group were as shown in FIG. 3A to FIG. 3D, FIG. 4A to FIG. 4B, Table 11 and Table 12.

[4] = Weight loss efficacy of derivatives in SD rats (Example 5); type: in vivo, SD (Sprague Dawley) rats; conditions: subcutaneous, 30 nmol/kg
Source text: SD (Sprague Dawley) rats weighing 200 g to 250 g were selected for this experimental study. Before the experiment, the rats arrived for at least 10 days to 14 days to adapt to the experimental environment. During this period, the rats were fed for two weeks in a reversed light/dark stage (meaning that the light was turned off during the day and turned on during the night) after arrival, and were fed separately in the first week of arrival to ensure accurate data and high test sensitivity, and the rats were free to obtain food and water during the whole adaptation period and experimental period. There were an experimental group [NT]5 and A6, and an experimental group B: B1, B2, B3, B4 and B5, with 5 to 8 rats in each treatment group of the derivative, and the rats in each group were subcutaneously administered with a derivative or a solvent by a dosage of 30 nmol/kg. The administration time of each group was recorded. After administration, the rats were put back into their cages in which the rats could get food and water. Food consumption and weight changes of the rats were recorded every 24 hours by online recording or manual recording. Weight and food intake changes of the SD rats in each group were as shown in FIG. 2A to FIG. 2D, Table 9 and Table 10.

[5] = Study on fatty acid side chain of derivatives, weight reduction in SD rats (Example 7); type: in vivo; conditions: subcutaneous, 30 nmol/kg
Source text: SD rats obtained by the same method as in Example 5 were used in this experimental study. There were an experimental group E: for testing weight reduction effects of the compounds PD065 and PD187, and an experimental group F: for testing the compounds PD065, PD071, PD140, PD144, PD145, PD146 and PD147, with 5 to 8 rats in each group of the derivative test, and the rats in each group were subcutaneously administered with a derivative or a solvent by a dosage of 30 nmol/kg. The administration time of each group was recorded. After administration, the rats were put back into their cages in which food and water available for the rats were placed. Food consumption and weight changes of the rats were recorded every 24 hours by online recording or manual recording.

[6] = experimental group C, 10 nmol/kg
[7] = experimental group C, 30 nmol/kg
[8] = experimental group C, 100 nmol/kg
[9] = experimental group D, 10 nmol/kg
[10] = experimental group D, 30 nmol/kg
[11] = experimental group D, 100 nmol/kg
[12] = CHO-K1/Ga15/AMY3 CRE-luc cells, read-out: EC50

CC[C@H](C)[C@H](NC(=O)[C@@H]1CCCN1C(=O)CNC(=O)[C@H](Cc1ccccc1)NC(=O)[C@H](CC(N)=O)NC(=O)[C@H](CC(N)=O)NC(=O)[C@H](CO)NC(=O)[C@H](CO)NC(=O)[C@H](Cc1c[nH]cn1)NC(=O)[C@H](CCCNC(=N)N)NC(=O)[C@H](CC(C)C)NC(=O)[C@H](Cc1ccccc1)NC(=O)[C@H](CCC(=O)O)NC(=O)[C@H](C)NC(=O)[C@H](CC(C)C)NC(=O)[C@H](CCCNC(=N)N)NC(=O)[C@H](CCC(N)=O)NC(=O)[C@@H](NC(=O)[C@H](C)NC(=O)[C@@H]1CSSC[C@H](NC(=O)[C@H](CCCCN)NC(=O)CC[C@H](NC(=O)CCCCCCCCCCCCCCCCCCC(=O)O)C(=O)O)C(=O)N[C@@H](CC(N)=O)C(=O)N[C@@H]([C@@H](C)O)C(=O)N[C@@H](C)C(=O)N[C@@H]([C@@H](C)O)C(=O)N1)[C@@H](C)O)C(=O)N[C@@H](CC(C)C)C(=O)N1CCC[C@H]1C(=O)N1CCC[C@H]1C(=O)N[C@H](C(=O)N[C@@H](CC(N)=O)C(=O)N[C@H](C(=O)NCC(=O)N[C@@H](CO)C(=O)N[C@@H](CC(N)=O)C(=O)N[C@H](C(=O)N1CCC[C@H]1C(N)=O)[C@@H](C)O)C(C)C)[C@@H](C)O [PD065, Cagrilintide]
Decrease percentage of protein concentration ([1]; pH about 7.4, 0 d): 0.00%
Protein concentration ([1]; pH about 7.4, 0 d): 0.81 mg/mL
Decrease percentage of protein concentration ([1]; pH about 7.4, 7 d): 22.35%
Protein concentration ([1]; pH about 7.4, 7 d): 0.63 mg/mL
Decrease percentage of protein concentration ([1]; pH about 7.4, 15 d): 46.78%
Protein concentration ([1]; pH about 7.4, 15 d): 0.43 mg/mL
Dissolution property [2]: Clear
Freeze storage property [2]: Clear
Freeze storage yield [2]: 93.44%
EC50 (human amylin receptor; EC50, CHO-K1/Ga15/AMY3 CRE-luc cells): 0.038 nM
Cumulative food intake at 72nd hour [3, 6]: 78.31 g
Weight change rate at 72nd hour [3, 6]: 1.59%
Cumulative food intake at 72nd hour [3, 7]: 60.22 g
Weight change rate at 72nd hour [3, 7]: 0.46%
Cumulative food intake at 72nd hour [3, 8]: 44.41 g
Weight change rate at 72nd hour [3, 8]: −6.61%
Cumulative food intake at 72nd hour [3, 9]: 64.27 g
Weight change rate at 72nd hour [3, 9]: 5.95%
Cumulative food intake at 72nd hour [3, 10]: 48.00 g
Weight change rate at 72nd hour [3, 10]: 2.81%
Cumulative food intake at 72nd hour [3, 11]: 33.89 g
Weight change rate at 72nd hour [3, 11]: −3.81%
Weight change rate at 48th hour ([4]; experimental group A): −6.13
Weight change rate at 48th hour ([4]; experimental group B): −6.74

CC[C@H](C)[C@H](NC(=O)[C@@H]1CCCN1C(=O)[C@H](CCCNC(=N)N)NC(=O)[C@H](CC(C)C)NC(=O)[C@H](CC(N)=O)NC(=O)[C@H](CC(N)=O)NC(=O)[C@H](CO)NC(=O)[C@H](CO)NC(=O)[C@H](Cc1c[nH]cn1)NC(=O)[C@H](CCCNC(=N)N)NC(=O)[C@H](CC(C)C)NC(=O)[C@H](Cc1ccccc1)NC(=O)[C@H](CC(=O)O)NC(=O)[C@H](C)NC(=O)[C@H](CC(C)C)NC(=O)[C@H](CCCNC(=N)N)NC(=O)[C@H](CCC(N)=O)NC(=O)[C@@H](NC(=O)[C@H](C)NC(=O)[C@@H]1CSSC[C@H](NC(=O)[C@H](CCCCN)NC(=O)CC[C@H](NC(=O)CCCCCCCCCCCCCCCCCCC(=O)O)C(=O)O)C(=O)N[C@@H](CC(N)=O)C(=O)N[C@@H]([C@@H](C)O)C(=O)N[C@@H](C)C(=O)N[C@@H]([C@@H](C)O)C(=O)N1)[C@@H](C)O)C(=O)N[C@@H](CC(C)C)C(=O)N1CCC[C@H]1C(=O)N1CCC[C@H]1C(=O)N[C@H](C(=O)N[C@@H](CC(N)=O)C(=O)N[C@H](C(=O)NCC(=O)N[C@@H](CO)C(=O)N[C@@H](CC(N)=O)C(=O)N[C@H](C(=O)N1CCC[C@H]1C(N)=O)[C@@H](C)O)C(C)C)[C@@H](C)O [PD161] ({C20 diacid-γGlu}-KCNTATCATQRLADFLRHSSNNLRPILPPTNVGSNTP-NH2; disulfide 2-7 (inferred))
EC50 (human amylin receptor; [12]): 0.026 nM
Weight change rate at 48th hour ([4]; experimental group B): −7.81

CC[C@H](C)[C@H](NC(=O)[C@@H]1CCCN1C(=O)[C@H](CCCNC(=N)N)NC(=O)[C@H](CC(C)C)NC(=O)[C@H](CC(N)=O)NC(=O)[C@H](CC(N)=O)NC(=O)[C@H](CO)NC(=O)[C@H](CO)NC(=O)[C@H](Cc1c[nH]cn1)NC(=O)[C@H](CCCNC(=N)N)NC(=O)[C@H](CC(C)C)NC(=O)[C@H](Cc1ccccc1)NC(=O)[C@H](CC(=O)O)NC(=O)[C@H](C)NC(=O)[C@H](CC(C)C)NC(=O)[C@H](CCCNC(=N)N)NC(=O)[C@H](CCC(N)=O)NC(=O)[C@@H](NC(=O)[C@H](C)NC(=O)[C@@H]1CSSC[C@H](NC(=O)[C@H](CCCCN)NC(=O)CC[C@H](NC(=O)CCCCCCCCCCCCCCCCCCC(=O)O)C(=O)O)C(=O)N[C@@H](CC(N)=O)C(=O)N[C@@H]([C@@H](C)O)C(=O)N[C@@H](C)C(=O)N[C@@H]([C@@H](C)O)C(=O)N1)[C@@H](C)O)C(=O)N[C@@H](CC(C)C)C(=O)N1CCC[C@H]1C(=O)N1CCC[C@H]1C(=O)N[C@H](C(=O)N[C@@H](CC(N)=O)C(=O)N[C@H](C(=O)NCC(=O)N[C@@H](CO)C(=O)N[C@@H](CC(N)=O)C(=O)N[C@H](C(=O)N1C[C@H](O)C[C@H]1C(N)=O)[C@@H](C)O)C(C)C)[C@@H](C)O [PD158] ({C20 diacid-γGlu}-KCNTATCATQRLADFLRHSSNNLRPILPPTNVGSNT[Hyp]-NH2; disulfide 2-7 (inferred))
EC50 (human amylin receptor; [12]): 0.022 nM
Weight change rate at 48th hour ([4]; experimental group B): −8.37

PD146: KCNTATCATQRLADFLRHSSNNLKPILPPTNVGSNT-trans-Hyp-NH2; N-terminal; Trx + C20 diacid ({C20 diacid-Trx′}-KCNTATCATQRLADFLRHSSNNLKPILPPTNVGSNT-{trans‑Hyp-NH2}; disulfide 2-7 (inferred); reading uncertain; also: printed as KCNTATCATQRLADFLRHSSNNLKPILPPTNVGSNT-trans-Hyp-NH2)
Dissolution property [2]: Clear
Freeze storage property [2]: Clear
Freeze storage yield [2]: 101.09%
activity (weight reduction effect) compared with PD065 [5]: better than that of the PD065

Source: patent US20260166128A1, “HUMAN AMYLIN ANALOG, AND DERIVATIVE THEREOF AND USE THEREOF” (priority 2022, published 2026)
